# Reference: patent publication US20080113994A1, “Annelated Quinoline Derivatives As Pesticide” (priority 2004, published 2008)
# Tests used:
# [1] = tested on: larvae of the army worm (Spodoptera frugiperda); assay: Spodoptera frugiperda test (spray treatment); assay type: in vivo; conditions: 500 g/ha, sprayed maize leaf disks
# Source text: Spodoptera frugiperda Test (Spray Treatment)
# [2] = tested on: larvae of the mustard beetle (Phaedon cochleariae); assay: Phaedon larvae test (spray treatment); conditions: sprayed Chinese cabbage leaf disks
# [3] = tested on: eggs of the cotton bollworm (Heliothis virescens); assay: Heliothis virescens egg test (spray treatment); assay type: in vivo; conditions: 500 g/ha, sprayed soybean leaves, 100% = none of the larvae hatched
# Source text: Heliothis virescens Egg Test (Spray Treatment)
# Meloidogyne incognita = assay: Meloidogyne test (spray treatment); assay type: in vivo; conditions: 20 g/ha, nematicidal effect from formation of galls on lettuce roots
# Procedure: Meloidogyne Test (Spray Treatment)
# Solvent: 80 parts by weight of acetone
# Containers are filled with sand, solution of active compound, Meloidogyne incognita egg/larvae suspension, and lettuce seeds. The lettuce seeds germinate and the plants develop. On the roots, galls are formed.
# After the desired time, the nematicidal effect is determined in % from the formation of galls. 100% here means that no galls were found; 0% means that the number of galls on the treated plants corresponds to that in the untreated control.
# [4] = tested on: greenhouse red spider mite (Tetranychus urticae); assay: Tetranychus test (OP-resistant/spray treatment); assay type: in vivo
# Source text: Tetranychus Test (OP-Resistant/Spray Treatment)
# Disks of bean leaves (Phaseolus vulgaris) which are infested by all stages of the greenhouse red spider mite (Tetranychus urticae) are sprayed with an active compound preparation in the desired concentration.
# [5] = tested on: larvae of the cabbage moth (Plutella xylostella); assay: Plutella test; assay type: in vivo; conditions: for Kill rate in % after 7^d: 100 PPM, dipped cabbage leaves; for efficacy (in words): Plutella test
# Source text: Solvent: 7 parts by weight of dimethylformamide
# Emulsifier: 1 part by weight of alkylaryl polyglycol ether
SMILES,Kill rate in % after 7^d [1],Kill rate in % after 7^d ([2]; 500 g/ha),Kill rate in % after 7^d [3],further results
COc1cc(C2C3=C(COC3=O)Nc3cc4c(cc32)OCO4)ccc1F (stereo not shown) [Example 148],100%,,,
Cc1cccc(C2C3=C(COC3=O)Nc3cc4c(cc32)OCO4)c1 (stereo not shown) [Example 19],100%,,,
COc1cc(C2C3=C(COC3=O)Nc3cc4c(cc32)OCO4)cc(O)c1OC (stereo not shown) [Example 130],,100%,,
COc1cc(C2C3=C(COC3=O)Nc3cc4c(cc32)OCO4)ccc1Cl (stereo not shown) [Example 139],100%,83%,,
COc1c(Cl)cc(C2C3=C(COC3=O)Nc3cc4c(cc32)OCO4)cc1Cl (stereo not shown) [Example 128],83%,100%,,
O=C1OCC2=C1C(c1cc(Br)cc(Br)c1)c1cc3c(cc1N2)OCO3 (stereo not shown) [Example 123],100%,,95%,
O=C1OCC2=C1C(c1cccc(OCc3ccc(Cl)cc3)c1)c1cc3c(cc1N2)OCO3 (stereo not shown) [Example 149],,,85%,
COc1ccc(C2C3=C(COC3=O)Nc3cc4c(cc32)OCO4)cn1 (stereo not shown) [Example 142],100%,100%,,
COc1cc(OC)cc(C2C3=C(COC3=O)Nc3cc(OC)ccc32)c1 (stereo not shown) [Example 161],100%,100%,100%,
O=C1OCC2=C1C(c1ccccc1)c1cc3c(cc1N2)OCO3 (stereo not shown) [Example 17],100%,,,
O=C1OCC2=C1C(c1cccc(OCCO)c1)c1cc3c(cc1N2)OCO3 (stereo not shown) [Example 158],100%,,,
CC1CC2=C(C(=O)O1)C(c1cccc(Cl)c1)c1cc3c(cc1N2)OCO3 (stereo not shown) [Example 35],100%,100%,,
O=C1OCC2=C1C(c1ccc(F)c(Br)c1)c1cc3c(cc1N2)OCO3 (stereo not shown) [Example 129],100%,,100%,
CCOc1cc2c(cc1C)C(c1cc(OC)cc(OC)c1)C1=C(COC1=O)N2 (stereo not shown) [Example 99],,83%,,
O=C1OCC2=C1C(c1cc(Cl)cc(Cl)c1)c1cc3c(cc1N2)OCO3 (stereo not shown) [Example 12],,100%,100%,
COc1cc2c(cc1OC)C(c1ccc3c(c1)OC(F)(F)O3)C1=C(COC1=O)N2 (stereo not shown) [Example 68],,,,Kill rate in % after 14^d (Meloidogyne incognita): 80%
"COc1cccc(C2C3=C(COC3=O)Nc3cc4c(cc32)OCO4)c1 (stereo not shown) [Example 1, 6,7-(methylenedioxy)-9-(3-methoxyphenyl)-4,9-dihydro-3H-furo[3,4-b]quinolin-1-one]",100%,,,
Cc1cc(C)cc(C2C3=C(COC3=O)Nc3cc4c(cc32)OCO4)c1 (stereo not shown) [Example 23],100%,,98%,
O=C1OCC2=C1C(c1cc(F)c(F)c(F)c1)c1cc3c(cc1N2)OCO3 (stereo not shown) [Example 153],100%,,,
O=C1OCC2=C1C(c1cc(F)cc(F)c1)c1cc3c(cc1N2)OCO3 (stereo not shown) [Example 16],100%,,97%,

SMILES,Kill rate in % after 7^d [1],Kill rate in % after 7^d ([2]; 500 g/ha),Kill rate in % after 7^d [3],further results
COc1cc(C2C3=C(COC3=O)N(C)c3cc4c(cc32)OCO4)cc(OC)c1OC (stereo not shown) [Example 69],,100%,,
COc1cc(OC)c(C2C3=C(COC3=O)Nc3cc4c(cc32)OCO4)cn1 (stereo not shown) [Example 150],,,100%,
O=C1OCC2=C1C(c1cccc(OC(F)(F)C(F)F)c1)c1cc3c(cc1N2)OCO3 (stereo not shown) [Example 157],100%,100%,,
COc1cc(OC)cc(C2C3=C(COC3=O)Nc3cc4c(cc32)OCCCO4)c1 (stereo not shown) [Example 75],100%,100%,,
Clc1cccc(C2C3=C(CCC3)Nc3cc4c(cc32)OCO4)c1 (stereo not shown) [Example 30],,,,"Kill rate in % after 7^d ([4]; 500 g/ha, after 7 d, sprayed bean leaf disks, all stages): 70%; efficacy (in words) ([4]; Tetranychus test): high efficacy"
COc1cc2c(cc1OC)C(c1ccc3c(c1)OCO3)C1=C(COC1=O)N2 (stereo not shown) [Example 72],,,,Kill rate in % after 14^d (Meloidogyne incognita): 100%
COc1cc(OC)cc(C2C3=C(COC3=O)Nc3cc4c(cc32)OCCO4)c1 (stereo not shown) [Example 74],100%,,,
COc1cc(C2C3=C(COC3=O)Nc3cc4c(cc32)OCO4)cc(OC)c1OC (stereo not shown) [Example 61],,100%,,
COc1cc(OC)cc(C2C3=C(COC3=O)Nc3ccc(OC)cc32)c1 (stereo not shown) [Example 162],,,100%,
COc1cc2c(c(C3C4=C(COC4=O)Nc4cc5c(cc43)OCO5)c1)OCO2 (stereo not shown) [Example 155],,100%,,
CCOc1cccc(C2C3=C(COC3=O)Nc3cc(OCC)ccc32)c1 (stereo not shown) [Example 103],100%,100%,,
COc1cc(C2C3=C(COC3=O)Nc3cc4c(cc32)OCO4)cc2c1OCO2 (stereo not shown) [Example 133],83%,100%,95%,
COc1cc(C2C3=C(COC3=O)Nc3cc4c(cc32)OCO4)cc(Br)c1OC (stereo not shown) [Example 114],,83%,,
CCOc1cccc(C2C3=C(COC3=O)Nc3cc4c(cc32)OCO4)c1 (stereo not shown) [Example 111],100%,,,
O=C1OCC2=C1C(c1ccc(F)c(Cl)c1)c1cc3c(cc1N2)OCO3 (stereo not shown) [Example 140],100%,,,
COc1cc(OC)cc(C2C3=C(COC3=O)Nc3cc(OC)c(C)cc32)c1 (stereo not shown) [Example 93],100%,100%,,
O=C1OCC2=C1C(c1cccc(Cl)c1)c1cc3c(cc1N2)OCO3 (stereo not shown) [Example 6],100%,,98%,Kill rate in % after 7^d [5]: 100%; efficacy (in words) [5]: high efficacy
O=C1OCC2=C1C(c1cc(C(F)(F)F)cc(Cl)c1F)c1cc3c(cc1N2)OCO3 (stereo not shown) [Example 113],,100%,95%,
COc1ccc2c(c1)NC1=C(C(=O)OC1)C2c1cc(OC)c(OC)c(OC)c1 (stereo not shown) [Example 9],100%,,,Kill rate in % after 7^d [5]: 90%; efficacy (in words) [5]: high efficacy
COc1cc(OC)cc(C2(C)C3=C(COC3=O)Nc3cc4c(cc32)OCO4)c1 (stereo not shown) [Example 107],,,90%,

SMILES,Kill rate in % after 7^d [1],Kill rate in % after 7^d ([2]; 500 g/ha),Kill rate in % after 7^d [3],further results
O=C1OCC2=C1C(c1cccc(F)c1)c1cc3c(cc1N2)OCO3 (stereo not shown) [Example 20],,83%,96%,
CCN1CC2=C(C1=O)C(c1ccc(OC)cc1)c1cc3c(cc1N2)OCO3 (stereo not shown),,,,Kill rate in % after 14^d (Meloidogyne incognita): 70%
COc1ccc(C2C3=C(CN(c4ccccc4)C3=O)Nc3cc4c(cc32)OCO4)cc1 (stereo not shown),,,,Kill rate in % after 14^d (Meloidogyne incognita): 70%
COc1cc(OC)cc(C2C3=C(CCC3=O)Nc3cc4c(cc32)OCO4)c1 (stereo not shown) [Example 56],100%,100%,80%,
COc1cc(OC)cc(C2C3=C(COC3=O)Nc3cc(SC)ccc32)c1 (stereo not shown) [Example 84],100%,,,
COc1cc(OC)cc(C2C3=C(COC3=O)Nc3ccc(OC)cc32)c1 (stereo not shown) [Example 86],100%,100%,,
COc1cc(C2C3=C(COC3=O)Nc3cc4c(cc32)OC(F)(F)O4)cc(OC)c1OC (stereo not shown) [Example 70],,100%,,
COc1cc(OC)cc(C2C3=C(COC3=O)Nc3cc(OC)c(OC)cc32)c1 (stereo not shown) [Example 73],83%,83%,,
COc1cc(OC)cc(C2C3=C(COC3=O)Nc3cc(OC)cc(OC)c32)c1 (stereo not shown) [Example 100],100%,,,Kill rate in % after 7^d ([2]; 100 g/ha): 83%
CN1OC(C)(C)C2=C(C1=O)C(c1cccc(Cl)c1)c1cc3c(cc1N2)OCO3 (stereo not shown) [Example 36],,,80%,
O=C1OCC2=C1C(c1cc(Br)c3c(c1)OCO3)c1cc3c(cc1N2)OCO3 (stereo not shown) [Example 145],100%,83%,,
"COc1ccc2c(c1)C(c1cc(OC)c(OC)c(OC)c1)C1=C(COC1=O)N2 (stereo not shown) [Example 8, 7-methoxy-9-(3,4,5-trimethoxyphenyl)-4,9-dihydro-3H-furo[3,4-b]quinolin-1-one]",,100%,,
N#CCOc1cccc(C2C3=C(COC3=O)Nc3cc4c(cc32)OCO4)c1 (stereo not shown) [Example 136],100%,83%,,
O=C1OCC2=C1C(c1cncc(Br)c1)c1cc3c(cc1N2)OCO3 (stereo not shown) [Example 116],100%,,,
COc1cc(OC)cc(C2C3=C(COC3=O)Nc3c2ccc(OC)c3OC)c1 (stereo not shown) [Example 90],100%,100%,,
COc1cc(OC)cc(C2C3=C(Nc4cc5c(cc42)OCO5)C(C)OC3=O)c1 (stereo not shown) [Example 45],100%,100%,98%,
O=C1OCC2=C1C(c1cccc(Br)c1)c1cc3c(cc1N2)OCO3 (stereo not shown) [Example 18],,100%,98%,
CC1(C)CC(=O)C2=C(C1)Nc1cc3c(cc1C2c1cccc(Cl)c1)OCO3 (stereo not shown) [Example 31],,,83%,
